Test results: PMC6017028 (Molecules : A Journal of Synthetic Chemistry and Natural …, 2018)

Assays:
human URAT1 = molecular target: T1, human URAT1 (Homo sapiens, UniProt Q96S37); conditions: for URAT1 inhibitory activity (in words): human URAT1, HEK293-URAT1 cells
T1 sequence (Q96S37 1-553): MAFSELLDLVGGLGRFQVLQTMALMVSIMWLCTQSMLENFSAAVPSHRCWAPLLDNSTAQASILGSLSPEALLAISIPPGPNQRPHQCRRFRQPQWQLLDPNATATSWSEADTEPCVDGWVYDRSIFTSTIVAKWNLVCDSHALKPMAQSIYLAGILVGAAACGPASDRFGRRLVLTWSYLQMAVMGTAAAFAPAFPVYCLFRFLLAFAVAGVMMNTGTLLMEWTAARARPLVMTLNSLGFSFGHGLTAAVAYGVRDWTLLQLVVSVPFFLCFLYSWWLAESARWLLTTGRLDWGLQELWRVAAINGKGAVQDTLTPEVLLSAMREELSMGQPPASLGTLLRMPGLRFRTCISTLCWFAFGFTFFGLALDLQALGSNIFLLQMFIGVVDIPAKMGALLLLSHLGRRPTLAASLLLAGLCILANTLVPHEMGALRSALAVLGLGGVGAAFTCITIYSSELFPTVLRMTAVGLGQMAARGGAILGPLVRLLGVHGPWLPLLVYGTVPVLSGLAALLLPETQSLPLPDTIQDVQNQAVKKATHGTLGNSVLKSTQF
Procedure: After incubation for 48 h, when the HEK293-URAT1 cells and mock cells were grown to confluence, the cells were treated with 0.25% trypsin for 1–2 min. Thereafter, the digested cells were diluted to a density of 1.5 × 10^5/mL and seeded onto the 24-well cell culture plates at 1 mL/well for about 48 h. […] The HEK293-URAT1 cells were then washed rapidly three times with ice-cold HBSS (Cl^− free) and lysed with 0.1 M aqueous NaOH solution. After that, 500-μL aliquots of cell lysates were transferred to scintillation vials and mixed with scintillation solution. The radioactivity in the cells was measured by a liquid scintillation counter (PerkinElmer, Waltham, MA, USA).

[1] = design: method as in PMID 17531180; conditions: weak organic acid; cited from earlier work
[2] = ratio of IC50 values against human URAT1

| IC50 (human URAT1) [µM] | melting point | Compound | other results |
| --- | --- | --- | --- |
| 18.4 ± 3.36 |  | CCn1c(Br)nnc1SCC(=O)O [1a, Sodium 2-((5-bromo-4-ethyl-4H-1,2,4-triazol-3-yl)thio)acetate] |  |
| 4.83 ± 1.02 |  | CCCn1c(Br)nnc1SCC(=O)O [1b, Sodium 2-((5-bromo-4-n-propyl-4H-1,2,4-triazol-3-yl)thio)acetate] |  |
| 4.6 ± 0.88 | 135 °C (dec.) | O=C([O-])CSc1nnc(Br)n1CC1CCCCC1.[Na+] [1c, Sodium 2-((5-bromo-4-(cyclohexylmethyl)-4H-1,2,4-triazol-3-yl)thio)acetate] |  |
| 5.11 ± 0.79 | 194 °C (dec.) | O=C([O-])CSc1nnc(Br)n1CC12CC3CC(CC(C3)C1)C2.[Na+] [1d, Sodium 2-((4-(1-adamantylmethyl)-5-bromo-4H-1,2,4-triazol-3-yl)thio)acetate] |  |
| 2.98 ± 0.6 | 119 to 121 °C | O=C([O-])CSc1nnc(Br)n1Cc1ccccc1.[Na+] [1e, Sodium 2-((4-benzyl-5-bromo-4H-1,2,4-triazol-3-yl)thio)acetate] |  |
| 14.2 ± 4.71 | 109 to 111 °C | O=C([O-])CSc1nnc(Br)n1Cc1cccnc1.[Na+] [1f, Sodium 2-((5-bromo-4-(3-pyridinylmethyl)-4H-1,2,4-triazol-3-yl)thio)acetate] |  |
| 4.54 ± 0.69 | 108 to 111 °C | O=C([O-])CSc1nnc(Br)n1Cc1ccco1.[Na+] [1g, Sodium 2-((5-bromo-4-(2-furanylmethyl)-4H-1,2,4-triazol-3-yl)thio)acetate] |  |
| 0.035 ± 0.01 |  | O=C([O-])CSc1nnc(Br)n1Cc1cccs1.[Na+] [1h, Sodium 2-((5-bromo-4-(2-thiophenylmethyl)-4H-1,2,4-triazol-3-yl)thio)acetate] | fold more potent than benzbromarone (human URAT1; [2]): 8 fold; fold more potent than parent lesinurad (human URAT1; [2]): 200 fold |
| 11.2 ± 2.36 | 97 °C (dec.) | O=C([O-])CSc1nnc(Br)n1Cc1ccc(Cl)s1.[Na+] [1ha, Sodium 2-((5-bromo-4-((5-chloro-2-thiophenyl)methyl)-4H-1,2,4-triazol-3-yl)thio)acetate] |  |
| > 50 | 157 °C (dec.) | Cc1ccc(Cn2c(Br)nnc2SCC(=O)[O-])s1.[Na+] [1hb, Sodium 2-((5-bromo-4-((5-methyl-2-thiophenyl)methyl)-4H-1,2,4-triazol-3-yl)thio)acetate] |  |
| 7.98 ± 2.14 | 178 to 180 °C | CCc1ccc(Cn2c(Br)nnc2SCC(=O)[O-])s1.[Na+] [1hc, Sodium 2-((5-bromo-4-((5-ethyl-2-thiophenyl)methyl)-4H-1,2,4-triazol-3-yl)thio)acetate] |  |
| 3.04 ± 0.84 | 158 °C (dec.) | Cc1ccsc1Cn1c(Br)nnc1SCC(=O)[O-].[Na+] [1hd, Sodium 2-((5-bromo-4-((3-methyl-2-thiophenyl)methyl)-4H-1,2,4-triazol-3-yl)thio)acetate] |  |
| 6.1 ± 1.17 | 87 °C (dec.) | Cc1cc(Cn2c(Br)nnc2SCC(=O)[O-])sc1Br.[Na+] [1he, Sodium 2-((5-bromo-4-((5-bromo-4-methyl-2-thiophenyl)methyl)-4H-1,2,4-triazol-3-yl)thio)acetate] |  |
| > 50 | 124 to 126 °C | O=C([O-])CSc1nnc(Br)n1Cc1ccsc1.[Na+] [1hf, Sodium 2-((5-bromo-4-((3-thiophenyl)methyl)-4H-1,2,4-triazol-3-yl)thio)acetate] | URAT1 inhibitory activity (in words) (human URAT1): complete loss of URAT1 inhibitory activity |
| 31.7 ± 9.34 | 212 °C (dec.) | O=C([O-])CSc1nnc(Br)n1Cc1ccc(-c2ccccc2)s1.[Na+] [1hg, Sodium 2-((5-bromo-4-((5-phenyl-2-thiophenyl)methyl)-4H-1,2,4-triazol-3-yl)thio)acetate] |  |
| 0.12 ± 0.03 | 99 °C (dec.) | O=C([O-])CSc1nnc(Br)n1Cc1sc2ccccc2c1Br.[Na+] [1hh, Sodium 2-((5-bromo-4-((3-bromobenzo[b]thiophen-2-yl)methyl)-4H-1,2,4-triazol-3-yl)thio)acetate] |  |
| 18.5 ± 5.41 | 74 °C (dec.) | O=C([O-])CSc1nnc(Br)n1Cc1cccc2c1sc1ccccc12.[Na+] [1hi, Sodium 2-((5-bromo-4-((dibenzo[b,d]thiophen-4-yl)methyl)-4H-1,2,4-triazol-3-yl)thio)acetate] |  |

| IC50 (human URAT1) [µM] | melting point | Compound | other results |
| --- | --- | --- | --- |
| 1.16 ± 0.34 | 199 to 201 °C | O=C([O-])CSc1nnc(Br)n1Cc1ccc(-c2ccccc2)cc1.[Na+] [1i, Sodium 2-((4-(biphenyl-4-methyl)-5-bromo-4H-1,2,4-triazol-3-yl)thio)acetate] |  |
| 1.15 ± 0.25 | 195 °C (dec.) | O=C([O-])CSc1nnc(Br)n1C(c1ccccc1)c1ccccc1.[Na+] [1j, Sodium 2-((5-bromo-4-(diphenylmethyl)-4H-1,2,4-triazol-3-yl)thio)acetate] |  |
| 2.61 ± 0.4 | 92 °C (dec.) | O=C([O-])CSc1nnc(Br)n1Cc1ccc2occc2c1.[Na+] [1k, Sodium 2-((4-(benzo[b]furan-5-methyl)-5-bromo-4H-1,2,4-triazol-3-yl)thio)acetate] |  |
| 3.8 ± 0.78 |  | N#Cc1ccc(Cn2c(Br)nnc2SCC(=O)O)c2ccccc12 [1l, Sodium 2-((5-bromo-4-((4-cyano-1-naphthyl)methyl)-4H-1,2,4-triazol-3-yl)thio)acetate] |  |
| 4.66 ± 1.04 | 118 °C (dec.) | O=C([O-])CSc1nnc(Br)n1Cc1ccc2ccccc2c1.[Na+] [1m, Sodium 2-((5-bromo-4-(2-naphthylmethyl)-4H-1,2,4-triazol-3-yl)thio)acetate] |  |
| 1.36 ± 0.24 | 122 °C (dec.) | O=C([O-])CSc1nnc(Br)n1Cc1ccc2ncccc2c1.[Na+] [1n, Sodium 2-((5-bromo-4-(quinoline-6-methyl)-4H-1,2,4-triazol-3-yl)thio)acetate] |  |
| 1.96 ± 0.34 |  | CC(C)(Sc1nnc(Br)n1Cc1ccc(C#N)c2ccccc12)C(=O)O [1o] |  |
| 0.59 ± 0.17 | 136 °C (dec.) | N#Cc1ccc(Cn2c(Br)nnc2SC2(C(=O)[O-])CCC2)c2ccccc12.[Na+] [1p, Sodium 1-((5-bromo-4-((4-cyano-1-naphthyl)methyl)-4H-1,2,4-triazol-3-yl)thio)cyclobutanecarboxylate] |  |
| 5.55 ± 0.98 | 161 °C (dec.) | N#Cc1ccc(Cn2c(Br)cnc2SCC(=O)[O-])c2ccccc12.[Na+] [1q, Sodium 2-((5-bromo-1-((4-cyano-1-naphthyl)methyl)-1H-imidazol-2-yl)thio)acetate] |  |
| 0.21 ± 0.07 | 243 °C (dec.) | CC(C)(Sc1ncc(Br)n1Cc1ccc(C#N)c2ccccc12)C(=O)[O-].[Na+] [1r, Sodium 2-((5-bromo-1-((4-cyano-1-naphthyl)methyl)-1H-imidazol-2-yl)thio)-2-methylpropionate] |  |
| 0.48 ± 0.11 | 285 °C (dec.) | N#Cc1ccc(Cn2c(Br)cnc2SC2(C(=O)[O-])CCC2)c2ccccc12.[Na+] [1s, Sodium 1-((5-bromo-1-((4-cyano-1-naphthyl)methyl)-1H-imidazol-2-yl)thio)cyclobutanecarboxylate] |  |
| 8.83 ± 1.02 | 268 °C (dec.) | N#Cc1ccc(Cc2cnccc2SCC(=O)[O-])c2ccccc12.[Na+] [1t, Sodium 2-((3-((4-cyano-1-naphthyl)methyl)pyridin-4-yl)thio)acetate] |  |
| 1.39 ± 0.42 |  | CC(C)(Sc1ccncc1Cc1ccc(C#N)c2ccccc12)C(=O)O [1u, Sodium 2-((3-((4-cyano-1-naphthyl)methyl)pyridin-4-yl)thio)-2-methylpropionate] |  |
| 1.15 ± 0.2 | 296 °C (dec.) | N#Cc1ccc(Cc2cnccc2SC2(C(=O)[O-])CCC2)c2ccccc12.[Na+] [1v, Sodium 1-((3-((4-cyano-1-naphthyl)methyl)pyridin-4-yl)thio)cyclobutanecarboxylate] |  |
| 17.4 ± 3.98 | 75 °C (dec.) | CC(C)(Sc1ncc(Br)n1Cc1cccs1)C(=O)[O-].[Na+] [1w, Sodium 2-((5-bromo-1-((2-thiophenyl)methyl)-1H-imidazol-2-yl)thio)-2-methylpropionate] | URAT1 inhibitory activity (in words) (human URAT1): weak |
| 0.32 ± 0.07 | 210 °C (dec.) | O=C([O-])C1(Sc2ncc(Br)n2Cc2cccs2)CCC1.[Na+] [1x, Sodium 1-((5-bromo-1-((2-thiophenyl)methyl)-1H-imidazol-2-yl)thio)cyclobutanecarboxylate] | URAT1 inhibitory activity (in words) (human URAT1): highly potent |
|  |  | O=c1[nH]c(=O)c2[nH]c(=O)[nH]c2[nH]1 [Uric acid] | pKa [1]: 5.75 |
